Values of other authors as cited in patent US6375990B1, “Method and devices for transdermal delivery of lithium” (Emory University, priority 1997, dated 2002).

Assays:
[1] = not given; remark: listed apart in the source
[2] = patients who do not respond to antidepressant monotherapy

final volume of distribution (Vd) (approximates total body water): 0.7 to 0.9 L/kg
time to maximal plasma Li+ concentration (Tmax) (immediate release formulations, following an oral dose): 1 to 4 h
binding to blood proteins (in vivo): does not bind to blood proteins
biotransformation / metabolic conversion (in vivo): not biotransformed
elimination through sweat, saliva, and feces (in vivo): less than 5 % of an oral dose
excretion through the kidneys (in vivo): > 90%
filtered load reabsorbed in the renal proximal tubules (in vivo): Eighty
half-life (in vivo): 18 to 36 h
absorption from the gastrointestinal tract (oral administration): readily and nearly completely absorbed
SMILES: [Li+] [Li^+, Lithium]
plasma concentration associated with life-threatening intoxication ([1]; plasma): exceeding 3.5 mEq/L
serum concentration above which adverse effects increase greatly ([1]; serum): exceed 1.5 mEq/L
antidepressant non-responders converted to responders [2]: approximately 50 % of patients
